Measured values from US20130039956A1, “USE OF NITROCARBOXYLIC ACIDS FOR THE TREATMENT, DIAGNOSIS AND PROPHYLAXIS OF AGGRESSIVE HEALING PATTERNS” (priority 2010, published 2013).

Experiments:
fibroblasts = test: Biofouling and cell adherence at prosthetic materials (dip-coated polymer films); assay type: cell-based; conditions: compared with native FA (control)
Protocol: Polymer scaffolds (polyurethane, polyvinylchloride, polylactate) which are used as implant materials were investigated. Solid and porous (pore sizes ranging from 50 to 150 micrometer) films of pure polymer scaffolds were cut into pieces (5×5 mm). After cleaning with NaOH and ethanol, they were dip-coated with native and nitrocarboxylic acids. Dip-coated pieces were suspended in a tube filled with argon and heated at 60° C. for 24 hours in the dark. Film pieces with and without coating were placed in a borosilicate glass tube that allowed fixation of two margins of the film pieces at the wall of the glass tube, thus, enabling a upright standing position in the center of the tube. Tubes were filled with various solutions for 12 hours. Solutions consisted of the following: 0.9% saline; 2% bovine albumin; 2% bovine albumin with addition of either fibronectin or laminin; and bovine serum. At the end of the exposure time, tubes were gently washed twice with 0.9% saline solution. One set of films was analyzed for protein absorption using a specific antibody staining method. An identically prepared set of films was further processed for cell cultures. A suspension containing preincubated fibroblasts in 1% FCS was added to the film-containing tubes. The tubes were tilted and adjusted in such a position so that the films were in a vertical orientation within the suspension. […] Tubes had two openings at the upper half (of the tilt tubes) that allowed free exchange of the atmosphere above the solution with the surrounding atmosphere. Sets were incubated at standard conditions for 24, 48, and 96 hours, respectively. Thereafter, films were carefully removed and rinsed with 0.9% saline solution. The cellularity and the shape of the cells on both sides of the films were evaluated after staining (Gimsa) using a reflected light microscope.

[1] = system: Human peripheral blood mononuclear cells (PBMCs); test: Adhesion of serum proteins and monocyte activation induced by coated silicone; assay type: cell-based; conditions: dip-coated silicone, PBMCs 3 days; compared with native FA
Protocol: In order to determine the effect of coating implant materials with nitro fatty acids to reduce adsorption of adhesion molecules and monocyte activation, sterile silicone sheets were out in small pieces and coated with respective nirocarboxylic acid and the corresponding native fatty acids by dip coating. Uncoated silicone pieces served as controls. For each fatty acid two sets of silicone pieces were bathed in freshly drawn human serum for 1 hour at 37° C., and another two sets were bathed in saline solutions. One set of both coated and uncoated pieces was analyzed immediately for adhesion proteins and the other set was placed in 96-well plates after rinsing the silicone pieces. Human peripheral blood mononuclear cells (PBMCs), isolated from three healthy subjects, were added to each well. Wells were incubated for 3 days under standard conditions. Culture supernatants were assayed for IL-1beta, IL-6, IL-8, and chemoattractant protein 1 (MCP-1) levels at the start and end of experiments.
Before analyzing the silicone pieces for protein adsorption, they were bathed in saline for 5 minutes. Thereafter, one side was rinsed with saline as performed for both sides in the set used for culturing. There was marked adsorption of fibrinogen and […] C5b-9 on the uncoated silicone. […] No protein was found on the surface of the nitro fatty acid-coated sample that was rinsed, thus, indicating the weak adherence of serum proteins.

human dermal fibroblasts = test: Extra cellular matrix production (collagen-1) in response to TGF-β2 in dermal fibroblasts; assay type: cell-based; conditions: 10 and 50 μmol, TGF-β2 25 ng/ml, 48 hours; compared with native FA
Protocol: In order to determine whether PPRA gamma stimulation due to nitrated fatty acids plays a role in the inventive inhibition of an aggressive healing pattern to an irritating stimulus, human dermal fibroblasts were investigated. A dominant-negative PPAR gamma mutant (L466A) cell clone was generated by polymerase chain reaction-based site-directed mutagenesis. Presence of PPAR gamma or absence was investigated using a PPAR gamma antibody reaction which was determined using an enhanced chemiluminescence detection system. Furthermore, one cell series was incubated with a selective irreversible PPAR gamma ligand (GW9662, 1 μmol), which effectively blocks PPAR gamma receptors.
Sequential cultivation of human dermal fibroblasts was performed in EMEM containing 5 mM glucose supplemented with 10% FCS under standard cultivation conditions. Cells were allowed to grow to confluence in a 96-well plate. Wild-type fibroblasts and PPAR gamma deficient fibroblasts were investigated by a set-up of 2×10 sample sets comprising: (1) blank control; (2) stimulation control; (3) preincubation with the PPAR gamma antagonist GW9662 (Cayman Chemical); (4) preincubation with the PPAR agonist troglitazone (25 μmol). In 2×4 sample sets, native fatty acids were added to the medium to achieve a final concentration of 10 and 50 μmol, respectively; in another 2×4 sets the nitrated fatty acids were added to the medium in the same concentration, while 2×2 sets served as controls. In 10 of the sets, TGF-β2 was added to the culture medium at a concentration of 25 ng/ml. Cultivation was continued for 48 hours and then processed in order to analyze collagen-1 as measured by enhanced chemiluminescence detection of immuncomplexes.

[2] = system: female Sprague-Dawley rats; test: Fibrogenesis in an in-vivo model of soft implant implantation; parameters: species or system rat; conditions: subcutaneous implants, 120 days, compared with native FA
Protocol: Silicone bag-gel miniprostheses (POLYTECH Health & Aesthetics GmbH, Dieburg, Germany) having a diameter of 2 cm and a volume of approximately 2 ml were used. […] The experimentally used implant models had two small tags which allowed the implants to be suspended during the coating procedures.
Each implant was treated in the following manner: cleaning by sonication for 2 min each in the following sequence of solvents: acetone, toluene, acetone, ethanol, and water. Implants were exposed to Piranha solution for 60 min and rinsed with deionized water. They were then immersed in a 20% aqueous solution of ammonium fluoride for 45 min to obtain a hydrogen-passivated Si surface. The ammonium fluoride solution was sparged with nitrogen for 15 min to remove dissolved oxygen. Prepared implants were transferred to a glass chamber filled with an inert atmosphere where they were suspended so that no part of their surface came in contact with the container. The container was filled with a 1-hexadecene solution and heated at 150° C. at a pressure of 2 Torr for 120 min. Prepared implants were cleaned in the following sequence of solvents: acetone, ethanol, and water. Formation of self assembled monolayer was controlled by measuring surface hydrophobicity; the contact angle was about 105°. Dry implants suspended in the container were then bathed in an ethanolic solution of oleic acid or nitro-oleic acid at a temperature of 40° C. for 120 min. Thereafter, the solution was allowed to run out slowly through an outlet at the bottom of the container. The emptying container was filled with inert gas in which the samples were maintained for 24 hours. Then samples were bathed three times in an ethanolic solution, followed by a final rinsing with sterile water. After drying, the container with the prepared implant was sterilized using ethylene oxide and stored at 20° C.
For in vivo testing, 24 uncoated and 24 coated implants were investigated in 24 female Sprague-Dawley rats (190-230 g). In the anesthetized animals, bilateral dorsal pockets in the subcutaneum were created by blunt dissection through paired paravertebral incisions. Each animal received one coated implant and one control implant on opposite sides, alternating sides on successive animals. Animals were housed and fed according to institutional standards for 120 days. Animals were sacrificed with chloroform. The implants and the adhering tissue were extracted by en bloc resection. The implants were cannulated and the liquid silicone gel was replaced by paraffin. Thereafter, the complete tissue block was prepared by standard means of histology, and stained with H&E or Masson's trichrome.
Also: key: 0: not superior to native FA (control); +: Superior to native FA; ++: superior to both; +++: outstanding effect.

Row | Compound | Relative differences: effect on biofouling and cell adherence (fibroblasts) | Relative effect on serum protein adhesion and monocyte activation [1] | Relative effect on collagen-1 production in response to TGF-β2 (human dermal fibroblasts) | Relative effect of surface coating on fibrogenesis around silicone implants [2]
1 | 5-nitro-eicosatrienoic acid [compound 4] | + | + | + | 
2 | 9,10-nitro-cis-oleic acid [compound 10] | +++ | ++ | ++ | ++
3 | 9,10-nitro-trans-oleic acid [compound 15] | ++ | + | + | +
4 | CCCCCCCC/C=C(/CCCCCCCC(=O)O)[N+](=O)[O-] [compound 1, 9-nitro cis-oleic acid] | ++ | +++ | +++ | ++
5 | CCCCC/C=C\C/C(=C\CCCCCCCC(=O)O)[N+](=O)[O-] [compound 2, 10-nitro-cis-linoleic acid] | ++ | ++ | ++ | ++
6 | CCCCCCCC/C(=C/CCCCCCCC(=O)O)[N+](=O)[O-] [compound 3, 10-nitro-cis-oleic acid] | ++ | ++ | ++ | ++
7 | CCCCC/C=C(/C/C=C\C/C=C\C/C=C\C/C=C\CCC(=O)O)[N+](=O)[O-] [compound 5, 16-nitro-all-cis-4,7,10,13,16-docosapentaenoic acid] | ++ | + | + | 
8 | CC/C=C\C/C=C\C/C=C(/CCCCCCCC(=O)O)[N+](=O)[O-] [compound 6, 9-nitro-all-cis-9-12,15-octadecatrienoic acid] | ++ | + | ++ | ++
9 | CC/C=C\C/C=C\C/C(=C/C/C=C\C/C=C\CCCCCC(=O)O)[N+](=O)[O-] [compound 7, 14-nitro-all-cis-7,10,13,16,19-docosapentaenoic acid] | ++ | 0 | + | 
10 | CCCCCCCC/C=C(/CCCCCCCCCCCCCC(=O)O)[N+](=O)[O-] [compound 8, 15-nitro-cis-15-tetracosenoic acid] | + | + | 0 | +
11 | CCCCCCCC/C=C(\CCCCCCCC(=O)O)[N+](=O)[O-] [compound 9, 9-nitro-trans-oleic acid] | + | + | + | +
12 | CCCCCCCC/C(=C\CCCCCCCC(=O)O)[N+](=O)[O-] [compound 12, 10-nitro-trans-oleic acid] | + | 0 | + | 
13 | CCCCCCCC/C=C(/CCCCCCCCCCCC(=O)O)[N+](=O)[O-] [compound 17, 13-nitro-cis-13-docosenoic acid] | + | + | + | 
14 | CCCCC/C=C(/C/C=C\C/C=C(/C/C=C\CCCC(=O)O)[N+](=O)[O-])[N+](=O)[O-] [compound 18, 8,14-nitro-cis-5,8,11,14-eicosatetraenoic acid] | + | ++ | + | 
15 | CCC=CCC=C(CC=CCC=CCC=CCC=C(CCC(=O)O)[N+](=O)[O-])[N+](=O)[O-] [compound 19, 4,16-nitro-docosahexaenoic acid] | + | + | + | 
16 | CCCCCCCCCCC/C=C(/CCCCC(=O)O)[N+](=O)[O-] [compound 21, 6-nitro-cis-6-octadecenoic acid] |  | 0 | ++ | +
